These results are taken from ChEMBL document CHEMBL1201862, “PubChem BioAssay data set” (2004).

Active and inactive are the calls of the source.

The AC50 is the midpoint of the concentration-response curve, whichever way the signal moves. As usually defined, the CC50 is the concentration that lowers cell viability or growth by half.

The target of assay [1] is Albumin (Bos taurus, UniProt P02769). As to the kind of experiment: Counterscreen for inhibitors of T-cell receptor (TCR)-CD3 interaction: Fluorescence-based biochemical high throughput dose response assay to identify inhibitors of T-cell receptor (TCR)-CD3 interaction using a TAMRA-labeled BSA probe. The assay is classed as functional.
For assay [2], the target named is ADP-ribosylation factor GTPase-activating protein 1 (Rattus norvegicus, UniProt Q62848). Nature of the assay: Fluorescence polarization-based biochemical high throughput dose response screening assay to identify inhibitors of ADP-ribosylation factor GTPase activating protein 1 (ARFGAP1). The assay is classed as functional.
The target of assay [3] is Arf-GAP with SH3 domain, ANK repeat and PH domain-containing protein 1 (Homo sapiens, UniProt Q9ULH1). It counts as functional.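 Further: biochemical fluorescence polarization dose–response screen measuring inhibition of ASAP1; ASAP1 GAP domain stimulating GTP hydrolysis by truncated human ARF1.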
Assay [4] has as its target T1, Long-chain-fatty-acid--AMP ligase FadD28 (Mycobacterium tuberculosis, UniProt P9WQ59).
T1 sequence (P9WQ59 whole entry): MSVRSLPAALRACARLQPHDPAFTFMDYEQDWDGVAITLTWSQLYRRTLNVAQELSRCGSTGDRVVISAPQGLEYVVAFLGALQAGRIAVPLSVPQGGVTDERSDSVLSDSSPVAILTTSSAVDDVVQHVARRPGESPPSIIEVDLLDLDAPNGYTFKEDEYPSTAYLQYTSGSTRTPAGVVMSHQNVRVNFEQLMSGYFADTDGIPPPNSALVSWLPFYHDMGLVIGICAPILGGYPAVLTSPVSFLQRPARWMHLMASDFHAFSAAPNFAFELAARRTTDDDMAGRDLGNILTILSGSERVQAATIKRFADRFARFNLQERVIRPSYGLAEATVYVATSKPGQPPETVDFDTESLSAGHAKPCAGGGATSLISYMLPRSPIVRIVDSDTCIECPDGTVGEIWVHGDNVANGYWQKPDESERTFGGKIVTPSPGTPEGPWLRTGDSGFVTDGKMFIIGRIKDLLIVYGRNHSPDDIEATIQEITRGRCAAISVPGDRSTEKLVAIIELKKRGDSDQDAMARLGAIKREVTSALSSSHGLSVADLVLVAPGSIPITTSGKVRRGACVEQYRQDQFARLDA
As to the kind of experiment: Fluorescence polarization aasay to screen for inhibitors that compete for the binding of FadD28 to a bisubstrate Measured in Biochemical System Using Plate Reader - 2147-01_Inhibitor_Dose_CherryPick_Activity. The assay is classed as functional, Mycobacterium tuberculosis H37Rv. On the technique in general: In fluorescence polarisation assays a small probe gives low polarisation when free and higher when bound to something large.

The target in assay [5] is Mu-type opioid receptor (Homo sapiens, UniProt P35372). It counts as functional, cell-based.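 Further: U2OS cells with beta-arrestin recruitment to OPRM1 by beta-gal complementation.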
The target of assay [6] is 5-hydroxytryptamine receptor 2A (Mus musculus, UniProt P35363). The assay is classed as functional, cell-based.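 Further: CHO-K1 cells with tagged receptor and beta-arrestin; agonist potency measured as compound-induced activation of the receptor.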
The target of assay [7] is T2, Short transient receptor potential channel 4 (Mus musculus, UniProt Q9QUQ5).
T2 sequence (Q9QUQ5 whole entry): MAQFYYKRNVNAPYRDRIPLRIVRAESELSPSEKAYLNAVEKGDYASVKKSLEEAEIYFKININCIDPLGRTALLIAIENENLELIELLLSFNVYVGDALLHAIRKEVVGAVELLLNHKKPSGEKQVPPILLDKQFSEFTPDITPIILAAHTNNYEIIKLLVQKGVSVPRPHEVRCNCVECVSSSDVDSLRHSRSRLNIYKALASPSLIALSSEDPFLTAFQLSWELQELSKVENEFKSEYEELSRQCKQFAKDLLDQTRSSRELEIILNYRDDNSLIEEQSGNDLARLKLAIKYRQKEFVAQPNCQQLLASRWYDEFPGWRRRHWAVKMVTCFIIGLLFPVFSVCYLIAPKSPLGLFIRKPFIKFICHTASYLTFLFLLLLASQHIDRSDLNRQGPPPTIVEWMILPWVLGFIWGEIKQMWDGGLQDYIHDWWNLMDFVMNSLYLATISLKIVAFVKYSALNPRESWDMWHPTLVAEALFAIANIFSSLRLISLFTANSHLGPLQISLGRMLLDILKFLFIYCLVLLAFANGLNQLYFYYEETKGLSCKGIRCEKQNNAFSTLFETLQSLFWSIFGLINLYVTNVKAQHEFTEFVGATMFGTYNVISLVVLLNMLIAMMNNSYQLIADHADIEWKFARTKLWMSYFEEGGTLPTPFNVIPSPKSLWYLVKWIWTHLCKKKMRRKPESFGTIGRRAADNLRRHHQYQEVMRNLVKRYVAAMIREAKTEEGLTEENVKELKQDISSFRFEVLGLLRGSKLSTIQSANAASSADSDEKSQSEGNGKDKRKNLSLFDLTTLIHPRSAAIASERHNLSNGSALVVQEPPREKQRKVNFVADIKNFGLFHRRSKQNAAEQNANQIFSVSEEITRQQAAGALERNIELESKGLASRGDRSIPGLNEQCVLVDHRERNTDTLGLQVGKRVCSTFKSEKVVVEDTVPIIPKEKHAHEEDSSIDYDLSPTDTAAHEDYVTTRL
Nature of the assay: mouse TRPC4 channel inhibitors, dose response, cell-based, HEK293 TRPC4/mu-opioid, Fluo-4 calcium (AID 434942).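 Further: potency of inhibitors blocking the TRPC4 calcium response.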 It counts as functional.

Assay [8] concerns the target Nonstructural protein 1 (Influenza A virus, UniProt Q194T2). The assay is classed as functional, Influenza A virus (A/California/07/2009(H1N1)).
For assay [9], the target named is T3, Sentrin-specific protease 8 (Homo sapiens, UniProt Q96LD8).
T3 sequence (Q96LD8 whole entry): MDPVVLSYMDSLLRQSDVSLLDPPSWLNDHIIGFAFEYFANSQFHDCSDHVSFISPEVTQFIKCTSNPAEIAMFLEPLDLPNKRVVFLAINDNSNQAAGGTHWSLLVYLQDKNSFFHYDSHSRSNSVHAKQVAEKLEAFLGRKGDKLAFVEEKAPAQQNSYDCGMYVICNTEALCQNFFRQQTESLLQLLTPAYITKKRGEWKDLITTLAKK
It counts as functional.

For assay [10], the target named is T3, Sentrin-specific protease 8. The assay is classed as functional. The source holds these as a separate data set.
The target in assay [11] is T4, Rac GTPase-activating protein 1 (Homo sapiens, UniProt Q9H0H5).
T4 sequence (Q9H0H5 whole entry): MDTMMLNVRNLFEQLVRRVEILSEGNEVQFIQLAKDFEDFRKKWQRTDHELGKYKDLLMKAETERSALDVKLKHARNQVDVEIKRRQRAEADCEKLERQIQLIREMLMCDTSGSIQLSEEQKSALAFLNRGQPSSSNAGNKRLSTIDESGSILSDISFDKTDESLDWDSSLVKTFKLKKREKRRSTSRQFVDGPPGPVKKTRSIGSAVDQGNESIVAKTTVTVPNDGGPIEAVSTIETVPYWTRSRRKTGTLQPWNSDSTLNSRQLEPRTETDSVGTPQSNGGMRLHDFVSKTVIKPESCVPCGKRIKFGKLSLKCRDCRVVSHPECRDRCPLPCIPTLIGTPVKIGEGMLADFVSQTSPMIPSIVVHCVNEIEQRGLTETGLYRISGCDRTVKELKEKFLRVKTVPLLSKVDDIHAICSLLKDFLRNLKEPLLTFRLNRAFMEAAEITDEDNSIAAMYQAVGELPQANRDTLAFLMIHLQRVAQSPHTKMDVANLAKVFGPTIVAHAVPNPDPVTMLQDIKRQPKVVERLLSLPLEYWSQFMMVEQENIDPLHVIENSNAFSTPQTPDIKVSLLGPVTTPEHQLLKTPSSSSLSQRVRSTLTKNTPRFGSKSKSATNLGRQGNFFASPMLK
Nature of the assay: MgcRacGAP GTPase-activating activity inhibitors, confirmation, biochemical, ADP Hunter fluorescence, primary and confirmatory (AID 624330). It counts as functional.

The nature of assay [12]: HeLa cell cytotoxicity, dose response, cytotoxicity control for MgcRacGAP inhibitor project (AID 624300). The assay is classed as functional.
Assay [13] addresses T5, Heat shock factor protein 1 (Mus musculus, UniProt P38532).
T5 sequence (P38532 whole entry): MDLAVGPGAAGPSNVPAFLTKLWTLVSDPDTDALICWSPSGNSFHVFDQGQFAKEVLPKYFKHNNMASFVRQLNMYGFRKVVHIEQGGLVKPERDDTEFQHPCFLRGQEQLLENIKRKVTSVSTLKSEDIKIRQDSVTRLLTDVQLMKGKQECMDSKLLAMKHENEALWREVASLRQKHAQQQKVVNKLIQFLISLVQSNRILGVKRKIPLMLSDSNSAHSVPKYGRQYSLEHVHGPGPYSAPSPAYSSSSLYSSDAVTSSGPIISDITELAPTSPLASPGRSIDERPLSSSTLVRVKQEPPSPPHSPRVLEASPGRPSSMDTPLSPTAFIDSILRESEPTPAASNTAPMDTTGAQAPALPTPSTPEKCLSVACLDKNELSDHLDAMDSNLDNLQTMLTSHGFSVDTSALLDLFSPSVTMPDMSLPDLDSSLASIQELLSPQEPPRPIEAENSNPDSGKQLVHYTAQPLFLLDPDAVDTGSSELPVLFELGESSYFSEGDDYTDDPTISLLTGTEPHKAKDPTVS
Nature of the assay: HSF1 potentiators in luciferase reporter cells, confirmation, cell-based, NIH3T3, luminescence, dose retest (AID 435004).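 Further: stress induced by proteasome inhibitor MG132 added 30 min after compound; luciferase reporter driven by HSF1 response element in NIH3T3 cells; actives raise luminescence as potentiators of the MG132 stress response.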 The assay is classed as functional. On the technique in general: A reporter such as luciferase makes a cellular process visible.

Assay [14] concerns the target T6, Corticotropin-releasing factor receptor 2/Corticotropin-releasing factor-binding protein (Homo sapiens, UniProt P24387+Q13324).
T6 sequence (Q13324 whole entry): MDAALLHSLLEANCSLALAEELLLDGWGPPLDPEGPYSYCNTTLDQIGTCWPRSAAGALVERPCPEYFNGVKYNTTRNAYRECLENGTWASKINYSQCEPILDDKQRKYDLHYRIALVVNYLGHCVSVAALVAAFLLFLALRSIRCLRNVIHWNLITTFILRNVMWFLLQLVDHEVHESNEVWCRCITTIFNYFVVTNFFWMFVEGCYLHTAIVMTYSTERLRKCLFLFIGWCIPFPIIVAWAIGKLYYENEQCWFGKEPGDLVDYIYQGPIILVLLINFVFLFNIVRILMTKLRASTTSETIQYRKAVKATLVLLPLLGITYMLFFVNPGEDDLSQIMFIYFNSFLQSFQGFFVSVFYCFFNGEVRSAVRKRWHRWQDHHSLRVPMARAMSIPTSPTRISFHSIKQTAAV
T6 sequence (P24387 whole entry): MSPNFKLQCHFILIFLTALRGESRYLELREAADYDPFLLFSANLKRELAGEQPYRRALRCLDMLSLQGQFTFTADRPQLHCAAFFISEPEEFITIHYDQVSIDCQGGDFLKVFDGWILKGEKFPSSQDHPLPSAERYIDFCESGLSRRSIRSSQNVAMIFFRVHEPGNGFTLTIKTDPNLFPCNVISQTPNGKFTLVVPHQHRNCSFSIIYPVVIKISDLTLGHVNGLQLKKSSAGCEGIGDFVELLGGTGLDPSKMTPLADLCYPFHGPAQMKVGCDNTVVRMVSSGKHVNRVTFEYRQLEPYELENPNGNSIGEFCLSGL
Nature of the assay: activators of CRF receptor 2 with binding protein – uHTS hits, confirmation (AID 602473). The assay is classed as functional. To be noted: read-out: EC50_Mean.

For assay [15], the target named is T6, Corticotropin-releasing factor receptor 2/Corticotropin-releasing factor-binding protein. Nature of the assay: Dose Response confirmation of uHTS hits for small molecule antagonists of the CRF-binding protein and CRF-R2 receptor complex. The assay is classed as functional. To be noted: read-out: IC50_Mean.
Assay [16] has as its target T7, DNA repair protein RAD52 homolog (Homo sapiens, UniProt P43351).
T7 sequence (P43351 whole entry): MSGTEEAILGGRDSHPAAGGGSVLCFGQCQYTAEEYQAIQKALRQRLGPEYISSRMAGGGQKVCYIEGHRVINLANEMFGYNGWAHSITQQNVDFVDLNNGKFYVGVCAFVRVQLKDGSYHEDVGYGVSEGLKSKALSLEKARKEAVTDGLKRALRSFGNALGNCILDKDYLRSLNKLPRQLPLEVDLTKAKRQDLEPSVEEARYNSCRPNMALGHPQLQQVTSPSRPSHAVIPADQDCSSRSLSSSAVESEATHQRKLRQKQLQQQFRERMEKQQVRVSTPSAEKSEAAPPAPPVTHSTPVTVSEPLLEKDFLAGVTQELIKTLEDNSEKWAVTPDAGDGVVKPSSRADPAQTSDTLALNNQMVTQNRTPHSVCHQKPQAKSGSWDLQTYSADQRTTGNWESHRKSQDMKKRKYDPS
The assay is classed as functional, biochemical.

5-hydroxytryptamine receptor 2A, sequence (P35363 whole entry): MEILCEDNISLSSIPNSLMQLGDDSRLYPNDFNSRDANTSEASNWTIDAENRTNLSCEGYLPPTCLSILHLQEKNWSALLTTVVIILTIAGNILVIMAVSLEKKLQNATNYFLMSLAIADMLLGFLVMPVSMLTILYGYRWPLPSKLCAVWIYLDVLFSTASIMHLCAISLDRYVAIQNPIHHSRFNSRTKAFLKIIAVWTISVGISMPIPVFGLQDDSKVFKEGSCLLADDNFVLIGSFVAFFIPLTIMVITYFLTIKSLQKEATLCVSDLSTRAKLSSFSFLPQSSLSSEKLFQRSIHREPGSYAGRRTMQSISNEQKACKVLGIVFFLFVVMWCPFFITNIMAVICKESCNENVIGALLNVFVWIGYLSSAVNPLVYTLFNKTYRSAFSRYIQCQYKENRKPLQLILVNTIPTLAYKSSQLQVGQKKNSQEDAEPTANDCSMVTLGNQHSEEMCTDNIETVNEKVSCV
Mu-type opioid receptor, sequence (P35372 whole entry): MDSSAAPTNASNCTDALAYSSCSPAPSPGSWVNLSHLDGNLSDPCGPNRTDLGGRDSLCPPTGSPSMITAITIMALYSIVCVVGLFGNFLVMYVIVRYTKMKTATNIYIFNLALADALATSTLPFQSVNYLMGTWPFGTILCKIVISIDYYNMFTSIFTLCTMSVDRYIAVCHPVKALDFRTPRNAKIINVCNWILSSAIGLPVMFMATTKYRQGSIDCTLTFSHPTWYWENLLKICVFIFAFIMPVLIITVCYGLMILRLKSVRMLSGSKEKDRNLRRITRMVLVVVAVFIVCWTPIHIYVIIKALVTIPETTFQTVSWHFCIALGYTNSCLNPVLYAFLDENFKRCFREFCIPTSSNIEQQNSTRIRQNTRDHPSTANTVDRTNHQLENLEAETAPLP
Nonstructural protein 1, sequence (Q194T2 whole entry): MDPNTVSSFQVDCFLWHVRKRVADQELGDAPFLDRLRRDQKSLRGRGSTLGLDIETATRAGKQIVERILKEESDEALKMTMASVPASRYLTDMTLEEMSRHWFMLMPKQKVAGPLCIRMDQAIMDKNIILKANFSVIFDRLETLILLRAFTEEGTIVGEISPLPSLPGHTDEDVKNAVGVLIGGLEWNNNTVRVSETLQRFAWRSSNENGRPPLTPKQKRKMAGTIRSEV
ADP-ribosylation factor GTPase-activating protein 1, sequence (Q62848 whole entry, the tested form may be a part): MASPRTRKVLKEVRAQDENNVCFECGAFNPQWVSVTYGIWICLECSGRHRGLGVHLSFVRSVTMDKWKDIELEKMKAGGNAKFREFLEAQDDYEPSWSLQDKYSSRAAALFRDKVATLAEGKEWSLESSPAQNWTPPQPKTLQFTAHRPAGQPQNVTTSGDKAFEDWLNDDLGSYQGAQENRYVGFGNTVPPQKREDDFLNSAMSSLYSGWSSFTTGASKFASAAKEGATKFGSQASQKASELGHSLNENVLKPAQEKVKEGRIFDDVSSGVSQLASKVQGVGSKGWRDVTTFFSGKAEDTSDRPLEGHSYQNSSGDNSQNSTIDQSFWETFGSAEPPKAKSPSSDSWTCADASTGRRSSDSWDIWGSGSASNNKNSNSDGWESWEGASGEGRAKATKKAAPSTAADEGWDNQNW
Arf-GAP with SH3 domain, ANK repeat and PH domain-containing protein 1, sequence (Q9ULH1 whole entry, the tested form may be a part): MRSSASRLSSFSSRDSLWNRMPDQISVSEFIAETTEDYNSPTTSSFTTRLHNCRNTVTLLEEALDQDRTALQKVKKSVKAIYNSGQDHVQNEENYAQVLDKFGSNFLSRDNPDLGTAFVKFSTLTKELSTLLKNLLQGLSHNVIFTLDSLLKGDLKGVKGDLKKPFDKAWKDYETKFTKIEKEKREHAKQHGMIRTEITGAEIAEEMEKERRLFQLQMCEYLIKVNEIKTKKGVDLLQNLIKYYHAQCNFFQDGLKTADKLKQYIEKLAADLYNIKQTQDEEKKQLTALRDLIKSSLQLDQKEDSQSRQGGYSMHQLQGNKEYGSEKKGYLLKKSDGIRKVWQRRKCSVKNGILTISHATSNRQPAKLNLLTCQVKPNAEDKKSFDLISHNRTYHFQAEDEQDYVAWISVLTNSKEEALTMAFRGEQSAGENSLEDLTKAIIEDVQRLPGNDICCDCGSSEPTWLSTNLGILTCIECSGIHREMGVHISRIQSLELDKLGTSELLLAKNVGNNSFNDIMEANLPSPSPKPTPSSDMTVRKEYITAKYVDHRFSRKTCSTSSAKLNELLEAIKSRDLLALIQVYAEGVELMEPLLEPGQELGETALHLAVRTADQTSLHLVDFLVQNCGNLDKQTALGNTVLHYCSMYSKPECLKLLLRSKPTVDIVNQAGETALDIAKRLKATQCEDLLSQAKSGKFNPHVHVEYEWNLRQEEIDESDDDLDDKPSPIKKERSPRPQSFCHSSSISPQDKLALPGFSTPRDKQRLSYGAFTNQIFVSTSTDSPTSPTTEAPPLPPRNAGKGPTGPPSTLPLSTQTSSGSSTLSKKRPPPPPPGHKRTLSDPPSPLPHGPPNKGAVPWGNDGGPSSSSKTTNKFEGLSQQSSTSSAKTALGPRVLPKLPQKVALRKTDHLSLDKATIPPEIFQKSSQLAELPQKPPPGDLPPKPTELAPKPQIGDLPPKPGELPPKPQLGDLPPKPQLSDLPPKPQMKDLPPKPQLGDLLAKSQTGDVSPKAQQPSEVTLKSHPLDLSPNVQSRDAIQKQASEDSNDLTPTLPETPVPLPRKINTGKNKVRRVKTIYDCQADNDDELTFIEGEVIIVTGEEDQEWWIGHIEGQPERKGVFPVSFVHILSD
Albumin, sequence (P02769 whole entry): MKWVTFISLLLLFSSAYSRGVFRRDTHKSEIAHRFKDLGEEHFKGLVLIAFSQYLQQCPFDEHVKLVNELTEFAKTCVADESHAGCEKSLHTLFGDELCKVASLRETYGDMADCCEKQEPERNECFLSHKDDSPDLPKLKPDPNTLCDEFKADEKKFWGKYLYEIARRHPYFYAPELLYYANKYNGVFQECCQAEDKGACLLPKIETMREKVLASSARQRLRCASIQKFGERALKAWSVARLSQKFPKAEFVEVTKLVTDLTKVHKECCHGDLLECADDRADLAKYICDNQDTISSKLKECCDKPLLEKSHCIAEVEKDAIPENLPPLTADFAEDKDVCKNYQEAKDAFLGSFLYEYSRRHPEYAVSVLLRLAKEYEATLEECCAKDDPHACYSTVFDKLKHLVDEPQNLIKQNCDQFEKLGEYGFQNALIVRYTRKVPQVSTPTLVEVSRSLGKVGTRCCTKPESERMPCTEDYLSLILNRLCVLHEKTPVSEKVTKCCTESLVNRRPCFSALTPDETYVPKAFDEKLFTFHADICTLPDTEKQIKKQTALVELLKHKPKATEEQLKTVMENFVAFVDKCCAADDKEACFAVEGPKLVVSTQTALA

As to `COc1ccc(C(=O)NC(=S)NNC(=O)c2ccc(O)cc2)cc1[N+](=O)[O-]`, in assay [1], the IC50 was > 94.1 µM (inactive).

`O=C(COc1ccc2oc(-c3ccco3)cc(=O)c2c1)N1CCCCC1`: the IC50 in assay [2] is 28.5 µM (inactive); in assay [3] it was 22.4 µM (inactive).

With `O=Cc1ccc(N2N=C(c3ccccc3)CC2c2ccccc2)cc1` (centres undefined), the half-maximal activity concentration (AC50) in [4] is 26.5 µM (active).

As for `CC(COc1ccccc1)N1CCC(CO)(Cc2ccccc2)CC1` (centres undefined), the EC50 in [5] is 92.5 µM (inactive); in assay [6], 590 nM (active); in assay [7], 5.96 µM (active).

As to `Cc1n[nH]c(O)c1C(c1c(C)n[nH]c1O)c1cn(Cc2ccc(F)cc2)c2ccccc12`, the IC50 in [8] was 47.2 µM (active); in assay [9] it was 5.81 µM (active); in assay [10], 6.07 µM (active).

As to `COc1ccc(CN2CCN(c3ccccn3)CC2)c(OC)c1`, the values for the EC50 in [5] and in [6] were 92.5 µM (inactive) and 529 nM (active), respectively.

For the molecule `CCc1ccc(O)c(/N=C/c2ccccc2O)c1`, in [11], the IC50 is 36.9 µM (active). The CC50 in assay [12] is 100 µM (active).

With `Cc1ccc(Cl)c(OCCCN(C)Cc2ccccc2)c1`, in [11], the IC50 is 165 µM (active). In addition, the CC50 in [12] is 100 µM (active).

On to `COc1ccc(CC2(CO)CCN(Cc3cc4ccccc4o3)CC2)cc1`, for which the EC50 is 92.5 µM (inactive) in [5] and 1070 nM (active) in [6].

Take `CN1c2ccccc2C(O)=C(C(S)=Nc2ccc(Cl)cc2)S1(=O)=O`: the AC50 in assay [4] was > 100 µM (inactive). Further, the EC50 was > 260 µM (inconclusive) in assay [13] and > 53 µM (inactive) in assay [14]. Also, the IC50 in [15] was 24.7 µM (active).

On to `Nc1ccc(CC2=NCCN2)cc1`, for which, in [16], the AC50 is 739 nM (active).

Turning to `CN(C)S(=O)(=O)c1cccc(C(=O)OCC(=O)Nc2sccc2C#N)c1`, in assay [4], the AC50 is > 100 µM (inactive).
